Bounds are passed on as bounds.

For assay [1], the target named is T1, Alpha-1B adrenergic receptor (Homo sapiens, UniProt P35368).
T1 sequence (P35368 whole entry): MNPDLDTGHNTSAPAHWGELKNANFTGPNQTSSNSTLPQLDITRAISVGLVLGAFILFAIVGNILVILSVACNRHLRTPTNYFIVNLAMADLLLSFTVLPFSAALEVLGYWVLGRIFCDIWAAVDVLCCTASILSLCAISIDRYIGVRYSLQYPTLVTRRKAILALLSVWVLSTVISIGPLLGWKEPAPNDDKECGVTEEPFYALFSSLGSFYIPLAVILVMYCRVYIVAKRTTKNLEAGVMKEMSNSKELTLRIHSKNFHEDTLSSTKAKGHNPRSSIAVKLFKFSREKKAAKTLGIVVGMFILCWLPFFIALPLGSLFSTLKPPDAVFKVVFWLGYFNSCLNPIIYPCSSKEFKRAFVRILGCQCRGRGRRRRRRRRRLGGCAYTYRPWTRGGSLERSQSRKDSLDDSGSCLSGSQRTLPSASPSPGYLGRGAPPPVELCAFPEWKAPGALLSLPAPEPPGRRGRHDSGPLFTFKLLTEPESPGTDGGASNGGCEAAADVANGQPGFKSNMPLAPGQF
As to the kind of experiment: Compound was evaluated for binding affinity against Alpha-1B adrenergic receptor using radioligand binding assay.

Assay [2] addresses 5-hydroxytryptamine receptor 2A (Homo sapiens, UniProt P28223). As to the kind of experiment: Compound was evaluated for binding affinity against 5-hydroxytryptamine 2A receptor using radioligand binding assay.
Assay [3] addresses T2, Muscarinic acetylcholine receptor M1 (Homo sapiens, UniProt P11229).
T2 sequence (P11229 whole entry): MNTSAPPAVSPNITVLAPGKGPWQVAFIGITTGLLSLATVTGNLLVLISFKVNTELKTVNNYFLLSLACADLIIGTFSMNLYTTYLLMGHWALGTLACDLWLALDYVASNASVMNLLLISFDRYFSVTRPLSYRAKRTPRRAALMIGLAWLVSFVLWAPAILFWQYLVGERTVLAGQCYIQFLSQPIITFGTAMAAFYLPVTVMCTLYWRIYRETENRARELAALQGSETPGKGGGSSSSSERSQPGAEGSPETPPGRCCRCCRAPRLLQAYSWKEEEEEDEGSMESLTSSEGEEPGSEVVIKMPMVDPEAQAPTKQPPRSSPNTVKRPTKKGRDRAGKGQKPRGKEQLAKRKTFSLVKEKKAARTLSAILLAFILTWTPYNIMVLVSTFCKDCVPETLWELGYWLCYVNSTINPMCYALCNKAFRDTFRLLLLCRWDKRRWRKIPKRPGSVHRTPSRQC
As to the kind of experiment: Compound was evaluated for binding affinity against Muscarinic M1 receptor using radioligand binding assay.

Assay [4] has as its target T3, Alpha-1A adrenergic receptor (Homo sapiens, UniProt P35348).
T3 sequence (P35348 whole entry): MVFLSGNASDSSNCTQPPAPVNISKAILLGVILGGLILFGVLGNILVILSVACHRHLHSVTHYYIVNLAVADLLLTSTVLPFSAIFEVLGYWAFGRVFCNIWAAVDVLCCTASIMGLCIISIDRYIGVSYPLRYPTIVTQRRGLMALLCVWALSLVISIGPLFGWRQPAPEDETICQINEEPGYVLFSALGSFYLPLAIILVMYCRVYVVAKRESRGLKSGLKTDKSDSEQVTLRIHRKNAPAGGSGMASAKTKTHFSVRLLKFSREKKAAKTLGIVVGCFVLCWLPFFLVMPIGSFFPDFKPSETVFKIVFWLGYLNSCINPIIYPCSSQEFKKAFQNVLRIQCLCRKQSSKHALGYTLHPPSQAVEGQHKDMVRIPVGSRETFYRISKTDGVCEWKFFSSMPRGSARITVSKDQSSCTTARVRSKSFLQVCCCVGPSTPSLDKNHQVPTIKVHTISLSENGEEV
As to the kind of experiment: Compound was evaluated for binding affinity against Alpha-1C adrenergic receptor using radioligand binding assay.

In a further assay the test system is Sus scrofa. As to the kind of experiment: Antagonism of 5-HT-induced tachycardia in anesthetized, vagotomized Yucatan micropigs at 0.1-30 ug/kg dose administered intraduodenally. Type of assay: functional. As to conditions: intraduodenal, read-out: ID50 (the source's name).
The target of assay [5] is T4, 5-hydroxytryptamine receptor 2C (Homo sapiens, UniProt P28335).
T4 sequence (P28335 whole entry): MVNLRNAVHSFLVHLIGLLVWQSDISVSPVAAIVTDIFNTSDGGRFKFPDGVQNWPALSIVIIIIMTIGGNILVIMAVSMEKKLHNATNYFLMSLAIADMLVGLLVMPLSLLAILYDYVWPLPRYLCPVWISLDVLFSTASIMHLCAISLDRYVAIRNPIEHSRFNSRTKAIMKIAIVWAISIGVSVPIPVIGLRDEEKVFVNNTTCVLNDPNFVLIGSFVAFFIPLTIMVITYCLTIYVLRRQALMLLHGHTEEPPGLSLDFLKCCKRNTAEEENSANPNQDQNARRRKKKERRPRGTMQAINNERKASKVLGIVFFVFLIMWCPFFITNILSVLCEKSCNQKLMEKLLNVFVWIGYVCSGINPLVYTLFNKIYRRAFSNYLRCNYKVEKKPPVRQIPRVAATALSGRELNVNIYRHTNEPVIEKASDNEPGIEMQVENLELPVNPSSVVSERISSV
As to the kind of experiment: Compound was evaluated for binding affinity against 5-hydroxytryptamine 2C receptor using radioligand binding assay.

The target in assay [6] is T5, Type-2 angiotensin II receptor (Homo sapiens, UniProt P50052).
T5 sequence (P50052 whole entry): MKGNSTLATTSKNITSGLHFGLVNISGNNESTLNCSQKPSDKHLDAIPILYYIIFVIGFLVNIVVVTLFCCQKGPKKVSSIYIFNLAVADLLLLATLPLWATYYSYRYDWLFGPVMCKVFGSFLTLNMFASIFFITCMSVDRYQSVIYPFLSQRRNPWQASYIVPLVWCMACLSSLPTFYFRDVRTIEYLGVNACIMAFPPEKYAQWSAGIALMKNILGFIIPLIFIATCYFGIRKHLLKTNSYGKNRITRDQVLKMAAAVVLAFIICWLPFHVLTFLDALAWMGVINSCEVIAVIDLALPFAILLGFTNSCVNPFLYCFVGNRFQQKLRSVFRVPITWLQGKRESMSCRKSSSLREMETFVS
As to the kind of experiment: Compound was evaluated for binding affinity against Angiotensin II receptor, type 2 using radioligand binding assay.

5-hydroxytryptamine receptor 2A, sequence (P28223 whole entry): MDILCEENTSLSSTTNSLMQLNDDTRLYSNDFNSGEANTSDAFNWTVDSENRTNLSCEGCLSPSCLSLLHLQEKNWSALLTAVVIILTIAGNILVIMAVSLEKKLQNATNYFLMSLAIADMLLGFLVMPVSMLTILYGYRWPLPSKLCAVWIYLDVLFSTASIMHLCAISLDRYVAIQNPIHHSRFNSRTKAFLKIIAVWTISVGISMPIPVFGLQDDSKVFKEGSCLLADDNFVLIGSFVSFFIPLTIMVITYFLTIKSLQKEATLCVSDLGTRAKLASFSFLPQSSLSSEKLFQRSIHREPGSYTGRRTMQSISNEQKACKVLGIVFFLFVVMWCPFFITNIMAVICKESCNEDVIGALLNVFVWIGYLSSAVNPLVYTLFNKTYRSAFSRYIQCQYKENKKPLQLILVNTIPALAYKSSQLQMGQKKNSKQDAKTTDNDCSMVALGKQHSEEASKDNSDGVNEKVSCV

Usually Ki stands for the equilibrium dissociation constant of an inhibitor or competing ligand from its target. Low readings indicate higher affinity, high ones lower affinity. Consider `COc1ccc(CCCN2CCC(CCC(=O)c3cc(Cl)c(N)c4c3OCCO4)CC2)cc1OC`, for which the Ki in assay [1] was 501 nM; in assay [2] it was 501 nM; in assay [3] it was 1580 nM; in assay [4] it was 316 nM; in assay [5], 1580 nM; in assay [6], more than 10000 nM. The ED50 with Sus scrofa came out at 1.52 µg/kg.

Source of the values: ChEMBL document CHEMBL1153669, “Rs-100235: A high affinity 5-HT4 receptor antagonist” (Bioorg Med Chem Lett, 1995).
